Data on one molecule can be found in patent publication US20240277744A1, “TREATMENT OF CHEMORESISTANT CANCER CELLS” (Cornell University, priority 2023, published 2024).

For experiment [1], the system named is UGT1A10 transcript in SW1990 cells. Kind of experiment: qRT-PCR of UGT1A10 expression. The experiment is classed as cell-based. As to conditions: SW1990, CYM treatment. As to the method:
(§1) qRT-PCR. Reverse transcription reaction was prepared with 0.5-2 μg total RNA using High Capacity cDNA Reverse Transcription Kit (Applied Biosystems). Products were diluted 10 folds with DNase&RNase free water as template. qPCR reactions were prepared with 2× LightCycler 480 SYBR Green I Master reagent (Roche) and proceeded in LightCycler 480 II (Roche) with software LightCycler 480 SW1.5.1 for signal acquisition and processing. ACTB was employed as internal reference. Primers were listed below: […]

In experiment [2] the test system is UGT1A10 transcript in SW1990GR cells. Briefly: qRT-PCR of UGT1A10 expression. The experiment is classed as cell-based. The procedure:
as §1
(In general: Real-time PCR tracks product formation cycle by cycle.)

In the next experiment the test system is SW1990 cells. Kind of experiment: Growth curve / proliferation assay. Type of experiment: cell-based. As to conditions: SW1990, 50 nM CYM. The procedure: (§2) To quantify growth, Cells were seeded into 96-well plates (2000/well). After overnight incubation, medium with indicated drug was refreshed. Cell proliferation was quantified every 2 days using CellTiter 96® AQueous Non-Radioactive Cell Proliferation Assay (Promega).

Experiment [3] has as its system SW1990GR cells. Kind of experiment: Growth curve / proliferation assay. The experiment is classed as cell-based. The note with it: 25 nM CYM. The procedure: as §2
A further experiment deals with DU145 cell line. Briefly: Flow cytometry of TRA-1-81+ cells. Type of experiment: cell-based. The note with it: DU145, 25 nM CYM, 5 days. The procedure:
(§3) Flow cytometry. TRA-1-60 PerCP-efluor710 (eBioscience, 1:50) and TRA-1-81 PE (eBioscience, 1:100) were used. Cells were blocked with 5% FBS plus mouse IgM isotype control antibody (eBioscience, 1:100) at room temperature for 15 min, then stained on ice for 30 min. Stained cells were resuspended in PBS containing 300 nM DAPI and proceeded to analysis or sorting. Cell apoptosis was analyzed with FITC-AnnexinV labeling reagent (BD). Flow cytometry analysis was carried out on BD FACS Calibur with FlowJo 9.8 software. Sorting was performed with FACSVantage SE (Becton Dickinson).

The next experiment relates to TRA-1-81+ SW1990GR cells. Kind of experiment: Flow cytometry of TRA-1-81+ cells. The experiment is classed as cell-based. As to the method: as §3
The test system of another experiment is HCT116 cell line. Briefly: Flow cytometry of TRA-1-81+ cells. Type of experiment: cell-based. As to conditions: HCT-116, 25 nM CYM, 5 days. The procedure:
as §3
In general terms: Flow cytometry measures light scatter and fluorescence of single cells or particles in a stream.

In another experiment the test system is TRA-1-81+ SW1990 cells. Briefly: Flow cytometry of TRA-1-81+ cells. Type of experiment: cell-based. As to the method:
as §3

A further experiment deals with SW1990 xenograft tumors. Briefly: Luciferase-labeled SW1990 xenograft in nude mice. Type of experiment: in vivo. The procedure: CYM suppresses TRA-1-60 expression and blocks tumor growth in vivo. Next it was sought to validate the effects of CYM in vivo, using a xenograft model with luciferase-labeled SW1990 cells propagated in nude mice. Tumor-harboring mice were separated into 4 groups and treated with PBS (control), 2 mg/kg CYM, 50 mg/kg GEM, or 2 mg/kg CYM plus 50 mg/kg GEM through intraperitoneal injections twice per week. Luciferase intensity was quantified twice per week and normalized with the value obtained from the starting day. […] Consistent with imaging, of the four groups, mice treated with GEM plus CYM generated xenograft tumors with the smallest size (FIG. 6C) and weight (FIG. 6D).
Tissue samples were fixed with 4% paraformaldehyde overnight at 4° C., washed with 70% ethanol and then embedded in paraffin. After De-paraffin and rehydration, antigen retrieval was preceded in hot antigen retrieving buffer with a normal-pressure steamer for 30 min. blocking was proceeded 1 hour at room temperature in PBS containing 1% horse serum. Primary antibody was stained overnight at 4° C. in PBS plus 0.5% Triton X-100 and 5% horse serum. Secondary antibody was incubated at room temperature for 1.5 hours.
Mouse Procedures. To assess in vivo effects of Cymarin (CYM), Luciferase-labelled SW1990 cells were transplanted to nude mice subcutaneously. Each mouse received four injections (5×10^5 cells/site). 12 days later, mice were randomly separated into 4 groups and treated with PBS (control), GEM (50 mg/kg bodyweight), CYM (2 mg/kg bodyweight) or GEM (50 mg/kg bodyweight) plus CYM (2 mg/kg bodyweight) twice weekly via intraperitoneal injection. Image acquisition was performed twice weekly with Xtreme Optical and X-ray small animal imaging system. Luciferin potassium salt (Regis), substrate of luciferase, was applied at 2 mg/25 g bodyweight in 150 μl PBS. Isoflurane (Henry Schein) was used for anesthesia during imaging.

For experiment [4], the system named is SW1990GR cells. Briefly: Annexin V/DAPI apoptosis by flow cytometry. As to conditions: 100 nM or 200 nM CYM, one day; TRA-1-81+ and TRA-1-81− subpopulations. The experiment is classed as cell-based. The procedure:
as §3

A further experiment deals with TRA-1-60+ SW1990GR cells. Kind of experiment: High content screen / immunofluorescent staining of TRA-1-60+ cells. The experiment is classed as cell-based. The procedure: Immunofluorescent staining. Primary antibodies were TRA-1-60 antibody (BD, 1:200), biotin conjugated TRA-1-60 antibody (eBioscience, 1:200). Secondary antibodies were donkey anti-mouse Alexa-efluor594 (Life technologies, 1:500) or streptavidin conjugated Alexa Fluor® 594 (Life technologies, 1:200).
Cells were fixed with 10% formalin for 20 min at room temperature. After 1 hour blocking in PBS with 5% horse serum and 0.3% triton-X100, primary antibodies were added to cells and incubated overnight at 4° C. Secondary antibody incubation was 1.5 hours at room temperature.
Chemical library screening. The Prestwick library of FDA approved drugs (˜1280 chemicals) plus a collection of drugs in clinical trials was used for the screen on SW1990GR cells.
For screening, SW1990GR cells were plated in 384-well plates (5000 cells/well). After overnight incubation, chemicals were added at 1 μM or 10 μM in duplicate. After 5 days of treatment, plates were stained with TRA-1-60 antibody and analyzed with MetaXpress High Content Image Acquisition and Analysis System (Molecular Devices). Wells treated with DMSO were set as control. The reduction was calculated by subtracting the percentage of TRA-1-60^+ cells in the chemical-treated wells from that of control wells. Standard deviation of TRA-1-60^+ percentage in control wells was calculated and 3-fold of this value was taken as threshold to pick up the primary hit.

With `CO[C@H]1C[C@H](O[C@H]2CC[C@]3(C=O)[C@H]4CC[C@]5(C)[C@@H](C6=CC(=O)OC6)CC[C@]5(O)[C@@H]4CC[C@]3(O)C2)O[C@H](C)[C@H]1O` [CYM, Cymarin], the UGT1A10 transcript levels result in [1] and in experiment [2] (CYM treatment) was “decreased” throughout. Also, the “expression of UGT1A10 in TRA-1-81+ and TRA-1-81− subpopulations” value in experiment [2] (25 nM CYM) was “significantly inhibits”. For the same molecule, the results for the proliferation entry with SW1990 cells and in the experiment on SW1990GR cells [3] were “significantly decreased the proliferation” and “sufficient to block the proliferation”, respectively. In addition, the “percentage of TRA-1-81+ cells” value in the experiment with DU145 cell line and with HCT116 cell line was “decreased” each time. Also, the “TRA-1-81+ cells in time course” value is “decrease of TRA-1-81^+ cells over time” in the experiment with TRA-1-81+ SW1990GR cells (25 nM CYM) and “decrease of TRA-1-81^+ cells over time” in the experiment on TRA-1-81+ SW1990 cells (SW1990, 25 nM CYM). Further, the IC50 in the experiment on TRA-1-81+ SW1990GR cells (flow cytometry, read-out: IC50, decrease of percentage of TRA-1-81+ cells) came out at 5.1 ± 1.5 nM; with TRA-1-81+ SW1990 cells (Homo sapiens, SW1990, read-out: IC50, repression of TRA-1-81+ cells), 6.3 ± 2.2 nM; with TRA-1-60+ SW1990GR cells (read-out: IC50, decrease of percentage of TRA-1-60+ cells) it was 15.2 ± 4.3 nM. Besides, the “percentage of TRA-1-81+ cells with or without acute GEM” value in the experiment on TRA-1-81+ SW1990 cells (SW1990, 5 days, 25 nM CYM or 100 nM GEM plus 25 nM CYM) was “decreased the percentage of TRA-1-81^+ cells effectively regardless of GEM”. The “tumor growth (luciferase intensity)” value in the experiment with SW1990 xenograft tumors (3 weeks, i.p. twice per week, GEM 50 mg/kg, CYM 2 mg/kg) is reported as “grew more slowly”. In addition, in the experiment with SW1990 xenograft tumors (CYM administration in GEM-treated tumors, immunofluorescence), the “percentage of TRA-1-60+ cells in xenograft tumors” value is around 13%. The “cell apoptosis in xenograft tumors (TUNEL+ cells)” value with SW1990 xenograft tumors (TUNEL assay) is listed as “cell death increased”. In addition, the “percentage of Annexin V+/DAPI− (early) and Annexin V+/DAPI+ (late) apoptotic cells” value with SW1990GR cells [4] was “increased”. The “percentage of TRA-1-60+ cells after treatment” value in the experiment on TRA-1-60+ SW1990GR cells (25 nM CYM, 5 days, SW1990GR, from ~18%) is “less than 5%”. Also, the “relative potency in TRA-1-60 inhibition” value in the experiment on TRA-1-60+ SW1990GR cells (SW1990GR) is reported as “higher potency than Ouabain”. In addition, the “validation of primary hit” value in the experiment with TRA-1-60+ SW1990GR cells (SW1990GR) is “able to be validated”.

What is called IC50 is the midpoint of a concentration-inhibition curve.
